# Data: patent US20210300943A1, “OGA INHIBITOR COMPOUNDS” (Janssen Pharmaceutica NV, priority 2018, published 2021)
# Molecular target: T1, recombinant human Meningioma Expressed Antigen 5 (MGEA5), also referred to as O-GlcNAcase (OGA) (Homo sapiens, UniProt O60502)
# T1 construct: Full length OGA enzyme was purchased at OnGene (cat #TP322411); purchased OnGene (so in the source)
# T1 sequence (O60502 1-916): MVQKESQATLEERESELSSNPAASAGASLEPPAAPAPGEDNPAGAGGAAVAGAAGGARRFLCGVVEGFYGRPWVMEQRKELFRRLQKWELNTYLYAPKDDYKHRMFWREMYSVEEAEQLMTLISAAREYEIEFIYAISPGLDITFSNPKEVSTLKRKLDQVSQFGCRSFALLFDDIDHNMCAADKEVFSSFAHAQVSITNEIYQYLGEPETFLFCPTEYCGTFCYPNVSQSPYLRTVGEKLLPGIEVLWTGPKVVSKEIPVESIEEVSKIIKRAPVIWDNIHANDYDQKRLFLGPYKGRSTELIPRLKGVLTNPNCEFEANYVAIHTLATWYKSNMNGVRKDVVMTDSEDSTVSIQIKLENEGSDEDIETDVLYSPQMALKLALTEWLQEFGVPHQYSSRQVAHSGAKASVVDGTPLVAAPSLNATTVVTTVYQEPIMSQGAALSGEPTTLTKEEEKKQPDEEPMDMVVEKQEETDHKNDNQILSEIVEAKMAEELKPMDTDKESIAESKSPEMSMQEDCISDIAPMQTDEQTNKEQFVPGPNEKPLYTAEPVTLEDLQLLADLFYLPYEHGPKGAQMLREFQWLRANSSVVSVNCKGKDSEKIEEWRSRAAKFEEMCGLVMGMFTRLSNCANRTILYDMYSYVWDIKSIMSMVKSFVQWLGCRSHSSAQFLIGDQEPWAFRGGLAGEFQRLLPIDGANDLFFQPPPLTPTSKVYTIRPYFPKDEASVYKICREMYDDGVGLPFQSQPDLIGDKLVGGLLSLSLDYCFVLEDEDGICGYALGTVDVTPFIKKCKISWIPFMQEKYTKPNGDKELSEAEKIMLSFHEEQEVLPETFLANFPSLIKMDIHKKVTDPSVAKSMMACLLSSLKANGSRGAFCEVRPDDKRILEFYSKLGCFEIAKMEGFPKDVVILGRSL
# Test: OGA biochemical assay (inhibition of FM-GlcNAc hydrolysis, fluorescence)
# Conditions: for Emax: maximal effect, read-out: Enzymatic Emax (%); for IC50: read-out: Enzymatic hOGA, pIC50 (converted)
# Method in brief: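 Full-length recombinant OGA (2 nM) pre-incubated with compound 60 min at room temperature, then FM-GlcNAc (100 µM final) added in citrate/phosphate buffer pH 7.2 with 0.005% Tween-20. After 6 h at room temperature, stopped with carbonate pH 11.0; fluorescein read at 485/538 nm; IC50 and Hill coefficient from curve fit.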
Emax [%],IC50 [nM],SMILES
101,7.94,"Cc1cc([C@H]2CCCN(C(C)c3cnc4c(c3)OCCN4)C2)cc(C)n1 (single isomer, unassigned) [Product 135]"
99,1.26,"Cc1cc(OC[C@H]2CCCN(C(C)c3nc4c(cc3F)OCCO4)C2)cc(C)n1 (single isomer, unassigned) [Product 155]"
